Reference: ChEMBL document CHEMBL4765406 (Eur J Med Chem, 2020)
Activity calls are given as the source filed them. The calls are words filed in the database; no cut-off is given here.

Experiments:
[1] = biological target: T1, Tyrosine-protein kinase BTK (Homo sapiens, UniProt Q06187); assay: Inhibition of BTK (unknown origin) using poly(Glu, Tyr) 4:1 as substrate incubated in presence of [gamma33P]ATP by image analyser
[2] = biological target: T1, Tyrosine-protein kinase BTK; assay: Inhibition of BTK in human Ramos cells assessed as reduction in anti-human IgM F(ab)2-induced ERK phosphorylation preincubated for 10 mins followed by stimulated with antihuman IgM F(ab)2 incubated for 60 mins by Western blot analysis; format: cell-based; details: time 70.0 min
[3] = biological target: T1, Tyrosine-protein kinase BTK; assay: Inhibition of BTK in human Ramos cells assessed as reduction in anti-human IgM F(ab)2-induced BTK phosphorylation at Tyr551 residue preincubated for 10 mins followed by stimulated with antihuman IgM F(ab)2 incubated for 60 mins by Western blot analysis; format: cell-based; details: time 70.0 min
[4] = biological target: T1, Tyrosine-protein kinase BTK; assay: Inhibition of BTK in human Ramos cells assessed as reduction in anti-human IgM F(ab)2-induced BTK phosphorylation at Tyr223 residue preincubated for 10 mins followed by stimulated with antihuman IgM F(ab)2 incubated for 60 mins by Western blot analysis; format: cell-based; details: time 1.0 hrs
[5] = biological target: T1, Tyrosine-protein kinase BTK; assay: Inhibition of BTK in human Ramos cells assessed as reduction in anti-human IgM F(ab)2-induced BCR mediated PLCgamma2 phosphorylation preincubated for 10 mins followed by stimulated with antihuman IgM F(ab)2 incubated for 60 mins by Western blot analysis; format: cell-based; details: time 70.0 min

T1 sequence (Q06187 whole entry): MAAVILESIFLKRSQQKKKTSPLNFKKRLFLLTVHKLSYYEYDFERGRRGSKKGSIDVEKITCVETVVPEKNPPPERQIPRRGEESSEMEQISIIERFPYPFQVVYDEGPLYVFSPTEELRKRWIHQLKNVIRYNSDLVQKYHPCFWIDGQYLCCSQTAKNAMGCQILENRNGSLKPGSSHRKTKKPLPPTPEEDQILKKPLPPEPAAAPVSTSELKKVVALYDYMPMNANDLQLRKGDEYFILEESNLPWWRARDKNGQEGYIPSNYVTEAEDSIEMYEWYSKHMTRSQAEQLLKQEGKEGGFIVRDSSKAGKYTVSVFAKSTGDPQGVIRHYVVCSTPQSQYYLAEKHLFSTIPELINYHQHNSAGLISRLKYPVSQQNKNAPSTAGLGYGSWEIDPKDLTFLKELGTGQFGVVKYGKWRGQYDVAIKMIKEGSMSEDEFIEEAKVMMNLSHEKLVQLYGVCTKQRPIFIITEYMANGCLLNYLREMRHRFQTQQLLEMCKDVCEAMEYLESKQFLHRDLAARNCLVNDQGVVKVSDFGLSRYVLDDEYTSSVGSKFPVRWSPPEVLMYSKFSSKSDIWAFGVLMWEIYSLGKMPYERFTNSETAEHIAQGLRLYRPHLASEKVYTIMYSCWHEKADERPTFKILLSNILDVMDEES

Row | IC50 [1] [nM] | inhibition [2] | inhibition [3] | inhibition [4] | inhibition [5] | Compound
1 | > 20000 | – | – | – | – | c1cc2nc(-c3ccc4cn[nH]c4c3)nc(Nc3ccc(N4CCOCC4)cc3)c2[nH]1
2 | 167 | – | – | – | – | c1cc(N2CCOCC2)ccc1Nc1nc(-c2ccc3cn[nH]c3c2)nc2[nH]ncc12
3 | 369 | inactive | – | – | – | c1nc2c(Nc3ccc(N4CCOCC4)cc3)nc(-c3ccc4cn[nH]c4c3)cc2[nH]1
4 | 801 | Active | Active | Active | Active | c1cn2cc(-c3ccc4cn[nH]c4c3)nc(Nc3ccc(N4CCOCC4)cc3)c2n1 [ENTOSPLETINIB]
5 | 73 | – | – | – | – | c1nc2c(Nc3ccc(N4CCOCC4)cc3)nc(-c3ccc4cn[nH]c4c3)nc2[nH]1
6 | 1450 | – | – | – | – | c1nc2c(Nc3ccc(N4CCOCC4)cc3)cc(-c3ccc4cn[nH]c4c3)nc2[nH]1
